US20050282755A1, “Compositions having antimicrobial activity and uses thereof” (priority 2004, published 2005)
Converted amounts (≈) assume the structure as drawn. Read-outs that look alike come from different tables or passages of the source. Non-standard residues stand in square brackets, D forms with d. Residues, ends and D or L forms follow the SMILES beside them. *: point of attachment. Lauroyl = CCCCCCCCCCCC(=O)*

What was measured:
[1] = test system: Escherichia coli ATCC 25922; assay: MIC, NCCLS M7-A6 broth microdilution (Table 9, no superscript); assay type: cell-based; settings: ATCC 25922
How it was run: (§1)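 Values come from a broth microdilution assay run in cation-adjusted Mueller Hinton broth with an inoculum of 5×10^5 to 1×10^6 CFU/milliliter, incubated overnight at 37° C and read as absence of visible turbidity.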

[2] = test system: Pseudomonas aeruginosa ATCC 27853; assay: as above; assay type: cell-based; settings: ATCC 27853
How it was run: as §1

[3] = test system: Staphylococcus epidermidis ATCC 12228; assay: as above; assay type: cell-based; settings: ATCC 12228
How it was run: as §1

[4] = test system: Propionibacterium acnes ATCC 6919; assay type: cell-based
Method: A second method that was used to determine the MIC in P. acnes for selected antimicrobial agents was a non-standard broth microdilution method that used an assay buffer composed of reinforced Clostridial broth. Briefly, a log-phase bacterial culture of P. acnes was used to inoculate wells of a 96-well plate so that the final inoculum for each well contained 5×10^5 to 1×10^6 CFU/milliliter. […] Plates were incubated for 48-72 hours at 37° C. in a GasPak anaerobic chamber. The lowest concentration of peptide that contained no visible growth as evidenced by a lack of turbidity when compared to the control (no peptide) was determined as the MIC. MIC values that utilized this method of MIC determination are indicated in Table 9 with a subscript letter “d.”

[5] = test system: Staphylococcus aureus ATCC 29213; settings: ATCC 29213, pH 7.4
Salmonella dublin (Lane) = settings: pH 7.4
human red blood cells = assay type: cell-based; settings: red cells of human
Method: Hemoglobin-release assays with human red blood cells (RBC) were performed to determine the hemolytic activity of granulysin peptides. Human RBCs (San Diego Blood Bank, San Diego, Calif.) were washed three times in PBS buffer (8 mM Na2HPO4, 1.5 mM KH2PO4, 140 mM NaCl and 2.7 mM KCl, pH 7.4), resuspended in PBS to the concentration of 5% (v/v). The RBC were then exposed to different peptide compositions at various concentrations (100-6.25 micromolar) and incubated at 37° C. for 60 minutes in a total volume of 120 microliters. Every experiment included a negative control without peptide and maximum control treated with 5% TX-100 for complete hemoglobin release. Samples were centrifuged for 1 minute at 13,000 g to remove debris and intact cells. The hemoglobin-containing supernatant was removed and transferred to a microwell plate. Hemoglobin release was quantified at A540 using a Versamax plate reader (Molecular Devices). The degree of hemolysis is expressed as percentage of hemolysis compared to the […], using the following formula: % hemolysis=(sample−neg. control)/(max. control−neg. control)×100.

| Structure (SMILES) | MIC E. coli [1] | MIC P. aeruginosa [2] | MIC S. epidermidis [3] | MIC P. acnes [4] | MIC S. aureus [5] | MIC S. dublin (Salmonella dublin (Lane)) | Hemolytic effect on human red blood cells (human red blood cells; 6.25 Micromolar) | Hemolytic effect on human red blood cells (human red blood cells; 12.5 Micromolar) | Hemolytic effect on human red blood cells (human red blood cells; 25 Micromolar) | Hemolytic effect on human red blood cells (human red blood cells; 50 Micromolar) | Hemolytic effect on human red blood cells (human red blood cells; 100 Micromolar) |
| --- | --- | --- | --- | --- | --- | --- | --- | --- | --- | --- | --- |
| CSCC[C@H](NC(=O)[C@H](Cc1ccccc1)NC(=O)[C@H](CC(N)=O)NC(=O)[C@H](CCCNC(=N)N)NC(=O)[C@H](CO)NC(=O)[C@H](Cc1c[nH]c2ccccc12)NC(=O)[C@H](CC(=O)O)NC(=O)[C@H](CCCNC(=N)N)NC(=O)[C@H](Cc1c[nH]c2ccccc12)NC(=O)[C@H](CCCNC(=N)N)NC(=O)[C@H](CO)NC(=O)[C@H](CCCNC(=N)N)NC(=O)CNC(=O)[C@@H](NC(=O)[C@H](CCCNC(=N)N)NC(=O)[C@H](CO)NC(=O)[C@@H](NC(=O)[C@H](CCCNC(=N)N)NC(=O)[C@@H](NC(C)=O)[C@@H](C)O)C(C)C)[C@@H](C)O)C(=O)N[C@@H](CCCNC(=N)N)C(=O)N[C@@H](C)C(=O)N[C@@H](C)C(=O)N[C@@H](CCCN)C(=O)N[C@@H](CCCN)C(=O)N[C@@H](CCCN)C(=O)N[C@@H](CCCN)C(=O)N[C@@H](CCCN)C(=O)N[C@@H](CCCN)C(=O)N[C@@H](CCCN)C(=O)N[C@@H](CCCN)C(N)=O [Peptide 3, Ac-TRVSRTGRSRWRDWSRNFMRAAOOOOOOOO-NH2] | >64 µg/mL | >64 µg/mL | >64 µg/mL | 6 µg·days/mL | 6b ug/mL | 6b ug/mL | – | – | – | – | – |
| CSCC[C@H](NC(=O)[C@H](Cc1ccccc1)NC(=O)[C@H](CC(N)=O)NC(=O)[C@H](CCCNC(=N)N)NC(=O)[C@H](CO)NC(=O)[C@H](Cc1c[nH]c2ccccc12)NC(=O)[C@H](CC(=O)O)NC(=O)[C@H](CCCNC(=N)N)NC(=O)[C@H](Cc1c[nH]c2ccccc12)NC(=O)[C@H](CCCNC(=N)N)NC(=O)[C@H](CO)NC(=O)[C@H](CCCNC(=N)N)NC(=O)CNC(=O)[C@@H](NC(=O)[C@H](CCCNC(=N)N)NC(=O)[C@H](CO)NC(=O)[C@@H](NC(=O)[C@H](CCCNC(=N)N)NC(=O)[C@@H](NC(C)=O)[C@@H](C)O)C(C)C)[C@@H](C)O)C(=O)N[C@@H](CCCNC(=N)N)C(=O)N[C@@H](CCCNC(=N)N)C(=O)N[C@@H](CCCNC(=N)N)C(N)=O [Peptide 13] (Ac-TRVSRTGRSRWRDWSRNFMRRR-NH2) | – | – | – | 25 µg·days/mL | 25b ug/mL | 25b ug/mL | – | – | – | – | – |
| CSCC[C@@H](NC(=O)[C@@H](Cc1ccccc1)NC(=O)[C@@H](CC(N)=O)NC(=O)[C@@H](CCCNC(=N)N)NC(=O)[C@@H](CO)NC(=O)[C@@H](Cc1c[nH]c2ccccc12)NC(=O)[C@@H](CC(=O)O)NC(=O)[C@@H](CCCNC(=N)N)NC(=O)[C@@H](Cc1c[nH]c2ccccc12)NC(=O)[C@@H](CCCNC(=N)N)NC(=O)[C@@H](CO)NC(=O)[C@@H](CCCNC(=N)N)NC(=O)CNC(=O)[C@H](NC(=O)[C@@H](CCCNC(=N)N)NC(=O)[C@@H](CO)NC(=O)[C@H](NC(=O)[C@@H](CCCNC(=N)N)NC(=O)[C@H](NC(C)=O)[C@H](C)O)C(C)C)[C@H](C)O)C(=O)N[C@H](CCCNC(=N)N)C(=O)N[C@H](C)C(=O)N[C@H](C)C(=O)N[C@H](CCCCN)C(=O)N[C@H](CCCCN)C(=O)N[C@H](CCCCN)C(=O)N[C@H](CCCCN)C(=O)N[C@H](CCCCN)C(=O)N[C@H](CCCCN)C(=O)N[C@H](CCCCN)C(=O)N[C@H](CCCCN)C(N)=O [Peptide 31, Ac-trvsrtgrsrwrdwsrnfmraakkkkkkkk-NH2] | >64 µg/mL | >64 µg/mL | 8 µg/mL (≈ 2.09 µM) | 12.5 µg·days/mL | 3b ug/mL | 6b ug/mL | – | – | – | – | – |
| CSCC[C@@H](NC(=O)[C@@H](Cc1ccccc1)NC(=O)[C@@H](CC(N)=O)NC(=O)[C@@H](CCCNC(=N)N)NC(=O)[C@@H](CO)NC(=O)[C@@H](Cc1c[nH]c2ccccc12)NC(=O)[C@@H](CC(=O)O)NC(=O)[C@@H](CCCNC(=N)N)NC(=O)[C@@H](Cc1c[nH]c2ccccc12)NC(=O)[C@@H](CCCNC(=N)N)NC(=O)[C@@H](CO)NC(=O)[C@@H](CCCNC(=N)N)NC(=O)CNC(=O)[C@H](NC(=O)[C@@H](CCCNC(=N)N)NC(=O)[C@@H](CO)NC(=O)[C@H](NC(=O)[C@@H](CCCNC(=N)N)NC(=O)[C@H](NC(=O)[C@@H](C)NC(=O)[C@@H](C)NC(=O)[C@@H](CCCCN)NC(=O)[C@@H](CCCCN)NC(=O)[C@@H](CCCCN)NC(=O)[C@@H](CCCCN)NC(=O)[C@@H](CCCCN)NC(=O)[C@@H](CCCCN)NC(=O)[C@@H](CCCCN)NC(=O)[C@H](N)CCCCN)[C@H](C)O)C(C)C)[C@H](C)O)C(=O)N[C@H](CCCNC(=N)N)C(N)=O [Peptide 36, H2N-kkkkkkkkaatrvsrtgrsrwrdwsrnfmr-NH2] (H-[dK][dK][dK][dK][dK][dK][dK][dK][dA][dA][dT][dR][dV][dS][dR][dT]G[dR][dS][dR][dW][dR][dD][dW][dS][dR][dN][dF][dM][dR]-NH2) | – | – | – | 25 µg·days/mL | 6b ug/mL | 6b ug/mL | – | – | – | – | – |
| CCCCCCCCCCCC(=O)NCCCC[C@@H](NC(=O)[C@@H](CCCNC(=N)N)NC(=O)[C@@H](CCSC)NC(=O)[C@@H](Cc1ccccc1)NC(=O)[C@@H](CC(N)=O)NC(=O)[C@@H](CCCNC(=N)N)NC(=O)[C@@H](CO)NC(=O)[C@@H](Cc1c[nH]c2ccccc12)NC(=O)[C@@H](CC(=O)O)NC(=O)[C@@H](CCCNC(=N)N)NC(=O)[C@@H](Cc1c[nH]c2ccccc12)NC(=O)[C@@H](CCCNC(=N)N)NC(=O)[C@@H](CO)NC(=O)[C@@H](CCCNC(=N)N)NC(=O)CNC(=O)[C@H](NC(=O)[C@@H](CCCNC(=N)N)NC(=O)[C@@H](CO)NC(=O)[C@H](NC(=O)[C@@H](CCCNC(=N)N)NC(=O)[C@H](NC(C)=O)[C@H](C)O)C(C)C)[C@H](C)O)C(N)=O [Peptide 65] (Ac-[dT][dR][dV][dS][dR][dT]G[dR][dS][dR][dW][dR][dD][dW][dS][dR][dN][dF][dM][dR][dK](Lauroyl)-NH2) | – | – | – | 25 µg·days/mL | 3b ug/mL | 6b ug/mL | – | – | – | – | – |
| CCCCCCCCCCCC(=O)NCCCC[C@H](NC(=O)[C@H](CCCNC(=N)N)NC(=O)[C@H](CCSC)NC(=O)[C@H](Cc1ccccc1)NC(=O)[C@H](CC(N)=O)NC(=O)[C@H](CCCNC(=N)N)NC(=O)[C@H](CO)NC(=O)[C@H](Cc1c[nH]c2ccccc12)NC(=O)[C@H](CC(=O)O)NC(=O)[C@H](CCCNC(=N)N)NC(=O)[C@H](Cc1c[nH]c2ccccc12)NC(=O)[C@H](CCCNC(=N)N)NC(=O)[C@H](CO)NC(=O)[C@H](CCCNC(=N)N)NC(=O)CNC(=O)[C@@H](NC(=O)[C@H](CCCNC(=N)N)NC(=O)[C@H](CO)NC(=O)[C@@H](NC(=O)[C@H](CCCNC(=N)N)NC(=O)[C@@H](NC(=O)CCCCCCCCCCC)[C@@H](C)O)C(C)C)[C@@H](C)O)C(N)=O [Peptide 66] (Lauroyl-TRVSRTGRSRWRDWSRNFMRK(Lauroyl)-NH2) | – | – | – | 100 µg·days/mL | 25b ug/mL | 25b ug/mL | – | – | – | – | – |
| CCCCCCCCCCCC(=O)N[C@@H](C(=O)N[C@H](CCCNC(=N)N)C(=O)N[C@@H](C(=O)N[C@H](CO)C(=O)N[C@H](CCCNC(=N)N)C(=O)N[C@@H](C(=O)NCC(=O)N[C@H](CCCNC(=N)N)C(=O)N[C@H](CO)C(=O)N[C@H](CCCNC(=N)N)C(=O)N[C@H](Cc1c[nH]c2ccccc12)C(=O)N[C@H](CCCNC(=N)N)C(=O)N[C@H](CC(=O)O)C(=O)N[C@H](Cc1c[nH]c2ccccc12)C(=O)N[C@H](CO)C(=O)N[C@H](CCCNC(=N)N)C(=O)N[C@H](CC(N)=O)C(=O)N[C@H](Cc1ccccc1)C(=O)N[C@H](CCSC)C(=O)N[C@H](CCCNC(=N)N)C(=O)N[C@H](C)C(=O)N[C@H](C)C(=O)N[C@@H](CCCCNC(C)=O)C(N)=O)[C@H](C)O)C(C)C)[C@H](C)O [Peptide 85, Lauryl-trvsrtgrsrwrdwsrnfmraaK(Ac)-NH2] | 8 µg/mL (≈ 2.58 µM) | >64 µg/mL | 2 µg/mL (≈ 0.644 µM) | – | – | – | 16% | 26% | 36% | 53% | 83% |
